Test system: diastolic blood pressure
Test: Hypotensive activity in anesthetized rats
Format: in vivo, rat (male Wistar strain)
Conditions: Rattus norvegicus; intravenous; dose producing a decrease of about 10 mm. in diastolic blood pressure
Experimental: This procedure is a modification of the technique described by Pike et al., Prostaglandins, Nobel Symposium 2, Stockholm, June, 1966; p. 165.
Male Wistar strain rats (Royal Hart Farms) averaging approximately 250 grams in weight were fastened to rat boards in a supine position by means of canvas vests and limb ties. The femoral area was infiltrated subcutaneously with lidocaine and the iliac artery and vein were exposed and cannulated. Arterial blood pressure (systolic/diastolic) was recorded using a Statham P23 Db pressure, the animals were anethetized before use with pentobarbital, 30 mg./kg. of body weight intravenously, and also were given hexamethoxium bitartrate, 2 mg./kg. of body weight intravenously. The test compounds were prepared by ultrasonic dispersion in a saline-Tween 80 vehicle. A constant intravenous dose volume of 0.5 ml. was administered and test doses ranged from 0.1 to 10.0 mg./kg. of body weight. Increasing or decreasing doses were selected depending on the dose response obtained. In Table 2B below are set forth the minimal doses required to produce a decrease of about 10 mm. in diastolic blood pressure for typical compounds of the present invention.

`CCCCC(C)(C)C(O)/C=C/[C@H]1CCC(=O)[C@@H]1CCCCOCC(=O)O` (relative stereo) [9-oxo-15-hydroxy-16,16-dimethyl-3-oxa-13-trans-prostenoic acid] and `CCCCC(C)(C)C(O)/C=C/[C@H]1CCC(=O)[C@@H]1CCCCSCC(=O)O` (relative stereo) [9-oxo-15-hydroxy-16,16-dimethyl-3-thia-13-trans-prostenoic acid] cannot be ordered by minimal effective dose: less than 2 mg/kg for the first, less than 2 mg/kg for the second.

Going from `CCC/C=C/C(O)CC[C@H]1CCC(=O)[C@@H]1CCCCCCC(=O)O` (relative stereo) [9-oxo-15-hydroxy-16-trans-prostenoic acid] to `CCCC#CC(O)CC[C@H]1CCC(=O)[C@@H]1CCCCCCC(=O)O` (stereo partly drawn) [9-oxo-15-hydroxy-16-prostynoic acid], the minimal effective dose rises from less than 2 mg/kg to 2 mg/kg.

Compared with `CCCCCC(O)/C=C/[C@H]1CCC(=O)[C@@H]1CCCCCC(CC)C(=O)O` (stereo partly drawn), `CCCCC[C@@H](O)/C=C/[C@H]1CCC(=O)[C@@H]1CCCCCC(CC)C(=O)O` (relative stereo) [2-ethyl-9-oxo-15-epi-hydroxy-13-trans-prostenoic acid] is higher in minimal effective dose: less than 2 mg/kg for the first, 2 to 4 mg/kg for the second.

`CCCCC[C@@H](O)/C=C/[C@H]1CCC(=O)[C@@H]1CCCCOCC(=O)O` (relative stereo) [3-oxa-9-oxo-15-epi-hydroxy-13-trans-prostenoic acid] and `CCCCCC(O)/C=C/[C@H]1CCC(=O)[C@@H]1CCCCOCC(=O)O` (relative stereo) [9-oxo-15-hydroxy-3-oxa-13-trans-prostenoic acid] cannot be ordered by minimal effective dose: 1 to 2 mg/kg for the first, less than 2 mg/kg for the second.

`CC/C=C\CC(O)/C=C/[C@H]1CCC(=O)[C@@H]1C/C=C\CCCC(=O)O` (relative stereo) [9-oxo-15-hydroxy-5-cis,13-trans,17-cis-prostatrienoic acid] and `CC/C=C\CC(C)(O)/C=C/[C@H]1CCC(=O)[C@@H]1C/C=C\CCCC(=O)O` (stereo partly drawn) [9-oxo-15-hydroxy-15-methyl-5-cis,13-trans,17-cis-prostatrienoic acid] cannot be ordered by minimal effective dose: less than 2 mg/kg for the first, less than 2 mg/kg for the second.

First: CCCC(C)(C)CC(O)/C=C/[C@H]1CCC(=O)[C@@H]1CCCCCCC(=O)O (relative stereo) [9-oxo-15-hydroxy-17,17-dimethyl-13-trans-prostenoic acid]
Second: CCCCC(C)(C)C(O)/C=C/[C@H]1CCC(=O)[C@@H]1CCCCCCC(=O)O (relative stereo) [9-oxo-15-hydroxy-16,16-dimethyl-13-trans-prostenoic acid]
The minimal effective dose of the first is higher: 2 mg/kg for the first, less than 2 mg/kg for the second.

`CCCCC[C@@H](O)/C=C/[C@H]1CCC(=O)[C@@H]1CCCCCC(C)C(=O)O` (relative stereo) [2-methyl-9-oxo-15-epi-hydroxy-13-trans-prostenoic acid] and `CCCCCC(O)/C=C/[C@H]1CCC(=O)[C@@H]1CCCCCC(C)C(=O)O` (relative stereo) [9-oxo-15-hydroxy-2-methyl-13-trans-prostenoic acid] are the same in minimal effective dose: 2 mg/kg for the first, 2 mg/kg for the second.

First: CCCCCC(O)/C=C/[C@H]1CCC(=O)[C@@H]1CCCCCC(F)C(=O)O (relative stereo) [9-oxo-15-hydroxy-2-fluoro-13-trans-prostenoic acid]
Second: CCCCCC(O)/C=C\[C@H]1CCC(=O)[C@@H]1CCCCCCC(=O)O (relative stereo) [9-oxo-15-hydroxy-13-cis-prostenoic acid, 15-hydroxy-9-oxo-13-cis-prostenoic acid]
The minimal effective dose of the first is higher: 8 mg/kg for the first, 2 to 4 mg/kg for the second.

`CCCCCC(O)/C=C/[C@H]1CCC(=O)[C@@H]1CCCCCCCCC(=O)O` (relative stereo) [9-oxo-15-hydroxy-7a,7b-bishomo-13-trans-prostenoic acid] and `CCCCCC(O)/C=C/[C@H]1CCCC(=O)[C@@H]1CCCCCCC(=O)O` (relative stereo) [9-oxo-15-hydroxy-10a-homo-13-trans-prostenoic acid] cannot be ordered by minimal effective dose: less than 8 mg/kg for the first, 2 mg/kg for the second.

Going from `CC/C=C\CC(O)/C=C/[C@H]1CCC(=O)[C@@H]1CCCCCCC(=O)O` (relative stereo) [9-oxo-15-hydroxy-13-trans,17-cis-prostadienoic acid] to `CCCCC[C@@H](O)/C=C/[C@H]1CCCC(=O)[C@@H]1CCCCCCC(=O)O` (relative stereo) [9-oxo-10a-homo-15-epi-hydroxy-13-trans-prostenoic acid], the minimal effective dose rises from less than 2 mg/kg to 2 mg/kg.

`CCCCCC(O)/C=C/[C@H]1CCC(=O)[C@@H]1CCCCSCC(=O)O` (relative stereo) [9-oxo-15-hydroxy-3-thia-13-trans-prostenoic acid] and `CCCCC[C@@H](O)/C=C/[C@H]1CCC(=O)[C@@H]1CCCCSCC(=O)O` (relative stereo) [3-thia-9-oxo-15-epi-hydroxy-13-trans-prostenoic acid] are the same in minimal effective dose: 2 mg/kg for the first, 2 mg/kg for the second.

`CCCCCC(O)CC[C@H]1CCC(=O)[C@@H]1CCCCCC(CC)C(=O)O` (stereo partly drawn) [2-ethyl-9-oxo-15-hydroxy-prostanoic acid, 9-oxo-15-hydroxy-2-ethyl-prostanoic acid] and `CCCCC(CC)C(O)/C=C/[C@H]1CCC(=O)[C@@H]1CCCCCCC(=O)O` (relative stereo) [9-oxo-15-hydroxy-16-ethyl-13-trans-prostenoic acid] cannot be ordered by minimal effective dose: 0.2 mg/kg for the first, less than 8 mg/kg for the second.

`CCCCC[C@@H](O)/C=C/[C@H]1CCC(=O)[C@@H]1CCCCCC(C(=O)O)c1ccccc1` (relative stereo) [2-phenyl-9-oxo-15-epi-hydroxy-13-trans-prostenoic acid] and `CCCCCC(O)/C=C/[C@H]1CCC(=O)[C@@H]1CCCCCC(C(=O)O)c1ccccc1` (relative stereo) [9-oxo-15-hydroxy-2-phenyl-13-trans-prostenoic acid] cannot be ordered by minimal effective dose: 2 to 8 mg/kg for the first, 8 mg/kg for the second.

Compared with `CCCCCC(O)/C=C/[C@H]1CCC(=O)[C@@H]1CCCCC(C)(C)CC(=O)O` (relative stereo) [9-oxo-15-hydroxy-3,3-dimethyl-13-trans-prostenoic acid], `CCCCCC(O)/C=C/[C@H]1CCC(=O)[C@@H]1CCCCOCC(=O)OCC` (relative stereo) [Ethyl 9-oxo-15-hydroxy-3-oxa-13-trans-prostenoate] is 40-fold lower in minimal effective dose: 8 mg/kg for the first, 0.2 mg/kg for the second.

Compared with `CCCCCC(O)/C=C/[C@H]1CCCC(=O)[C@@H]1CCCCCCC(=O)OCC` (relative stereo) [Ethyl 9-oxo-15-hydroxy-10a-homo-13-trans-prostenoate], `CCCCC[C@@H](O)/C=C/[C@H]1CCC(=O)[C@@H]1CCCCOCC(=O)OCC` (relative stereo) [Ethyl 3-oxa-9-oxo-15-epi-hydroxy-13-trans-prostenoate] is 10-fold lower in minimal effective dose: 2 mg/kg for the first, 0.2 mg/kg for the second.

`CCCCCC(O)/C=C/[C@H]1CCC(=O)[C@]1(C)CCCCCCC(=O)O` (relative stereo) [9-oxo-8β-methyl-15-hydroxy-13-trans-prostenoic acid] was tested, and the minimal effective dose was 2 mg/kg.

Test system: bronchospasms elicited by histamine
Test: Bronchodilator activity (Konzett assay), histamine as spasmogenic agent
Format: in vivo, guinea pig
Conditions: Cavia porcellus; three logarithmic cumulative intravenous doses
Experimental: (§1) Bronchodilator activity was determined in guinea pigs against bronchospasms elicited by intravenous injections of 5-hydroxytryptamine, histamine or acetylcholine by the Konzett procedure. [See J. Lulling, P. Lievens, F. El Sayed and J. Prignot, Arzeimittel-Forschung, 18 995 (1968).]
(§2) In the Table which follows bronchodilater activity for representative compounds of this invention against one or more of the three spasmogenic agents is expressed as an ED50 determined from the results obtained with three logarithemic cumulative intravenous doses.

For `CCCCCC(O)/C=C/[C@H]1CCC(=O)[C@@H]1CCCCCC(CC)C(=O)O` (stereo partly drawn), the ED50 was 0.000145 mg/kg.

Test system: bronchospasms elicited by acetylcholine
Test: Bronchodilator activity (Konzett assay), acetylcholine as spasmogenic agent
Format: in vivo, guinea pig
Conditions: Cavia porcellus, read-out: Bronchodilator Activity ED50, spasmogenic agent acetylcholine; three logarithmic cumulative intravenous doses; read-out: Bronchodilator Activity ED50, spasmogenic agent choline
Experimental: as §1, §2

In order of falling ED50:
1. CCCCCC(O)/C=C/[C@H]1CCC(=O)[C@@H]1CCCCCC(CC)C(=O)O (stereo partly drawn)  0.000533 mg/kg
2. CCCC#CC(O)CC[C@H]1CCC(=O)[C@@H]1CCCCCCC(=O)O (stereo partly drawn) [9-oxo-15-hydroxy-16-prostynoic acid]  0.00032 mg/kg
3. CCCCCC(O)/C=C\[C@H]1CCC(=O)[C@@H]1CCCCCCC(=O)O (relative stereo) [9-oxo-15-hydroxy-13-cis-prostenoic acid, 15-hydroxy-9-oxo-13-cis-prostenoic acid]  0.00032 mg/kg

Test system: bronchospasms elicited by 5-hydroxytryptamine
Test: Bronchodilator activity (Konzett assay), 5-hydroxytryptamine as spasmogenic agent
Format: in vivo, guinea pig
Conditions: Cavia porcellus; three logarithmic cumulative intravenous doses
Experimental: as §1, §2

In the case of `CCCCCC(O)/C=C/[C@H]1CCC(=O)[C@@H]1CCCCCC(CC)C(=O)O` (stereo partly drawn), the ED50 was 0.000329 mg/kg.

From patent US3966773A, “2-Substituted-3,4-epoxycyclopentan-1-ones, and 2-substituted-3,4-epoxycyclopentan-1-ols” (American Cyanamid Company, priority 1975, dated 1976)
